Source: patent publication US11306078B2, “Piperidine CXCR7 receptor modulators” (IDORSIA PHARMACEUTICALS LTD., priority 2016, dated 2022)

Molecular target: human chemokine receptor CXCR7 (Homo sapiens (Human), UniProt P25106)
Assay: Tango CXCR7-bla U2OS beta-arrestin recruitment assay (beta-lactamase reporter, FRET), antagonism of CXCL12/SDF1-α;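 further: compounds preincubated 15 min before CXCL12 addition, then 22 h at 37 °C, FRET emission ratio read with CCF4-AM substrate after 2 h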
Assay type: cell-based
Conditions: antagonistic effect on CXCR7; Tango CXCR7-bla U2OS cells, CXCL12/SDF1-α at its EC80

Chain of human chemokine receptor CXCR7 (P25106 whole entry): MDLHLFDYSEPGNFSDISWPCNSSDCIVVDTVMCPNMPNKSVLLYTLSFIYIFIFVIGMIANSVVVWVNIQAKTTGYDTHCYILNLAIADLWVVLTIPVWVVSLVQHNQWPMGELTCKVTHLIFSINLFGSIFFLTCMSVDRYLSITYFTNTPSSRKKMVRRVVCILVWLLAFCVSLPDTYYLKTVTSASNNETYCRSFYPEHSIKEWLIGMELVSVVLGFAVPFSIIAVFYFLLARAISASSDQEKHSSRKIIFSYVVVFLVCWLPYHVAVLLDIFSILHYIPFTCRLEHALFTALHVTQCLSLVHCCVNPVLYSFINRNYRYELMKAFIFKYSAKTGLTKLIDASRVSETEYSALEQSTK

With `O=C(N[C@@H]1CCN(C2CCCCC2)C[C@H]1C(=O)NCCOC(F)(F)F)c1cc(-c2ccc(F)cc2F)on1` (racemic) [Example 1.038, rac-(3R*,4R*)-1-Cyclohexyl-4-{[5-(2,4-difluoro-phenyl)-isoxazole-3-carbonyl]-amino}-piperidine-3-carboxylic acid (2-trifluoromethoxy-ethyl)-amide] the IC50 was 490 nM.

Compound `O=C(N[C@@H]1CCN(C2CCCC2)C[C@H]1C(=O)NC1(c2ccccn2)CC1)c1cc(-c2c(F)cc(F)cc2F)on1` [Example 1.17] has an IC50 of 16 nM.

For `C[C@@H](NC(=O)[C@H]1CN(CC2CC2)CC[C@@H]1NC(=O)c1cc(-c2ccc(F)cc2F)no1)c1ccccn1` (single isomer, unassigned) [Example 1.154a, (3S,4S)-1-Cyclopropylmethyl-4-{[3-(2,4-difluoro-phenyl)-isoxazole-5-carbonyl]-amino}-piperidine-3-carboxylic acid ((R)-1-pyridin-2-yl-ethyl)-amide or (3R,4R)-1-Cyclopropylmethyl-4-{[3-(2,4-difluoro-phenyl)-isoxazole-5-carbonyl]-amino}-piperidine-3-carboxylic acid ((R)-1-pyridin-2-yl-ethyl)-amide], the IC50 was 46 nM.

`C[C@@H](NC(=O)[C@@H]1CN(CC2CC2)CC[C@H]1NC(=O)c1cc(-c2c(F)cc(F)cc2F)on1)C1CCC1` (single isomer, unassigned) [Example 1.139b, (3R*,4R*)-1-Cyclopropylmethyl-4-{[5-(2,4,6-trifluoro-phenyl)-isoxazole-3-carbonyl]-amino}-piperidine-3-carboxylic acid ((R)-1-cyclobutyl-ethyl)-amide] gave an IC50 of 29 nM.

In the case of `CC1(NC(=O)[C@@H]2CN(C3CCCCC3)CC[C@H]2NC(=O)c2cc(-c3ccc(F)cc3F)on2)CC1` [Example 4.018], the IC50 is reported as 343 nM.

Compound `Cc1cccc([C@H](C)NC(=O)[C@@H]2CN(C3CCCCC3)CC[C@H]2NC(=O)c2cc(-c3ccc(F)cc3F)on2)n1` (single isomer, unassigned) [Example 1.188c, (3R*,4R*)-1-Cyclohexyl-4-{[5-(2,4-difluoro-phenyl)-isoxazole-3-carbonyl]-amino}-piperidine-3-carboxylic acid [(S)-1-(6-methyl-pyridin-2-yl)-ethyl]-amide] has an IC50 of 179 nM.

In the case of `C[C@@H](NC(=O)[C@@H]1CN(CC2CC2)CC[C@H]1NC(=O)c1cc(-c2c(F)cc(F)cc2F)on1)c1cnccn1` (relative stereo) [Example 1.131, (3R*,4R*)-1-Cyclopropylmethyl-4-{[5-(2,4,6-trifluoro-phenyl)-isoxazole-3-carbonyl]-amino}-piperidine-3-carboxylic acid ((R)-1-pyrazin-2-yl-ethyl)-amide], the IC50 is reported as 102 nM.

In the case of `N#CC1(NC(=O)[C@@H]2CN(C3CCCC3)CC[C@H]2NC(=O)c2cc(-c3ccc(F)cc3F)on2)CCC1` [Example 2.064], the IC50 is reported as 84 nM.

In the case of `CC1(NC(=O)[C@H]2CN(C3CCCCC3)CC[C@@H]2NC(=O)c2cc(-c3ccc(F)cc3F)on2)CC1` [Example 4.001, (3S,4S)-1-Cyclohexyl-4-{[5-(2,4-difluoro-phenyl)-isoxazole-3-carbonyl]-amino}-piperidine-3-carboxylic Acid (1-methyl-cyclopropyl)-amide], the IC50 is reported as 133 nM.

With `O=C(N[C@@H]1CCN(CC2CC2)C[C@H]1C(=O)NC1(c2ccccn2)CC1)c1ncc(-c2ccc(F)cc2F)o1` (racemic) [Example 3.015, rac-(3R*,4R*)-1-Cyclopropylmethyl-4-{[5-(2,4-difluoro-phenyl)-oxazole-2-carbonyl]-amino}-piperidine-3-carboxylic acid (1-pyridin-2-yl-cyclopropyl)-amide] the IC50 was 170 nM.

With `CN(C)C(=O)[C@@H]1CN(CC2CC2)CC[C@H]1NC(=O)c1cn(-c2ccc(F)cc2F)nn1` (racemic) [Example 1.097, rac-(3R*,4R*)-1-Cyclopropylmethyl-4-{[1-(2,4-difluoro-phenyl)-1H-[1,2,3]triazole-4-carbonyl]-amino}-piperidine-3-carboxylic acid dimethylamide] the IC50 was 442 nM.
